For assay [1], the system named is stem cells. The assay can be described thus: real time PCR of senescence, stemness, proliferation and TLR3 signaling genes. Format: cell-based. The settings on record: pre-treatment before poly IC. On the procedure:
The present inventors have confirmed the expression of proteins involved in proliferation and differentiation promotion of stem cell and stemness increase according to tofacitinib treatment using real time PCR. For this, cells were treated with TRIzol reagent to lyse the cells, and treated with chloroform to separate the aqueous solution layer containing the RNA. The separated aqueous solution was treated with isopropanol to precipitate RNA and centrifuged to extract RNA only. […] Real-time PCR was performed using the CFX Connect Real-Time PCR Detection System (Bio-rad) and primers used were shown in Table 1. Relative mRNA expression levels were analyzed using the comparative threshold cycles (2-^Ct) method.

Assay [2] has as its system stem cells. The assay can be described thus: Western blotting of senescence, stemness, proliferation and TLR3 signaling proteins. The class given is cell-based. Particulars: JAK1 inhibitor pretreated 2 hours before poly IC 1 ug/ml, 2 days after poly IC. (In general: In western blotting, separated proteins are transferred to a membrane and probed.)
Experimental: More specifically, the stem cells were plated in a 10 cm dish (3×10^5 cells/dish) and treated with poly IC (1 ug/ml) one day later. […] After 2 days of poly IC treatment, western blotting was performed for analyzing the protein expression. For this, the cells were treated with RIPA lysis buffer (1% Np-40, 0.5% Na-deoxycholate, 0.4% SDS, 0.15 M NaCl, 0.05 M Tris-HCl (pH 8), Halt Protease and Phosphatase Inhibitor Cocktail (78440, Thermo Scientific)) and reacted in ice for 30 minutes to extract the cells. The cell lysate was centrifuged and the supernatant was collected and quantified using bicinchoninic acid protein assay kit (23225, Thermo Scientific). 10 ug of the protein extract was separated by 12% SDS-PAGE and transferred to a nitrocellulose membrane. After reacting for 1 h in blocking buffer (0.1% Tween 20, 5% BSA in tris buffered saline) at room temperature (RT), the primary antibody was treated and reacted overnight at 4° C. […] After washing three times with TBST solution, peroxidase-conjugated secondary antibody was reacted for 1 hour at RT and protein bands were analyzed using C-DiGit Blot Scanner (LI-COR).
Assay [3] concerns stem cells. The assay can be described thus: SA-b-gal staining of poly IC-induced inflammatory senescence. Format: cell-based. The settings on record: tofacitinib 1 ug/ml pretreated 2 hours before poly IC 1 ug/ml; measured 2 days after poly IC.
Experimental: More specifically, stem cells were plated in 6 wells (2×10^4 cells/well) and treated with poly IC (1 ug/ml) one day later. […] After 2 days of the poly IC treatment, the degree of senescence was measured using senescence cells histochemical staining kit (CS0030, Sigma). For this, the plate was washed twice with PBS and fixed with fixation buffer (2% formaldehyde, 0.2% glutaraldehyde, 7.04 mM Na2HPO4, 1.47 mM KH2PO4, 0.137 M NaCl, and 2.68 mM KCl) for 6 minutes and reacted with staining buffer (6 mM Potassium Ferricyanide, 6 mM Potassium Ferrocyanide, 1 mg/ml X-gal Solution in phosphate buffer (pH 6)) at 37° C. for 24 hours. The number of b-galactoxidase-positive cells was measured by microscopic observation and the degree of cellular senescence was shown in a graph.
The subject of assay [4] is stem cells. The assay can be described thus: BrdU assay of cell survival rate after poly IC. The class given is cell-based. The settings on record: tofacitinib 1 ug/ml pretreated 2 hours before poly IC 1 ug/ml; BrdU ELISA 2 days after poly IC. (In general: Incorporation of labelled thymidine or its analogues reports DNA synthesis.)
Experimental: More specifically, cells were plated in 96 wells (1×10^3 cells/well) and treated with poly IC (1 μg/ml) one day later. […] After 2 days of poly IC treatment, cell survival rate was measured using BrdU cell proliferation ELISA (11647229001, Roche). For this, the BrdU labeling solution was treated at 10 μl/well for 4 hours at 37° C. Then, fixdenat buffer was treated by 200 ul/well for 30 minutes to immobilize the cells and reacted with 100 ul/well of anti BrdU-POD solution for 90 minutes. Thereafter, 100 ul of the substrate solution was treated, the OD value at 370 nm wavelength was measured by ELISA, and the cell survival rate was plotted.
The test system of assay [5] is stem cells. The assay can be described thus: real time PCR of TGF-b and HGF, proteins that inhibit T cell activity. Format: cell-based. Particulars: pre-treatment of tofacitinib before poly IC. On the technique in general: Quantitative PCR measures a nucleic acid by following its amplification.
Experimental: For this, cells were treated with TRIzol reagent to lyse the cells, and treated with chloroform to separate the aqueous solution layer containing the RNA. The separated aqueous solution was treated with isopropanol to precipitate RNA and centrifuged to extract RNA only. The extracted RNA was quantified using nanodrop. 2 ug of RNA was synthesized using TOPscript cDNA synthesis kit (RT200, Enzynomics) as a cDNA mixture and used as a template for real time PCR. […] Relative mRNA expression levels were analyzed using the comparative threshold cycles (2-^Ct) method.
Assay [6] has as its system stem cells. The settings on record: FACS analysis and real time PCR; pre-treatment of tofacitinib before poly IC.
Experimental: More specifically the stem cells were treated with trypsin/EDTA and separated into single cells and mouse anti-human HLA-ABC (555553, BD Biosciences) was reacted at RT for 1 hour and washed three times and then analyzed using a FACS calibur instrument (BD Biosciences).

Regarding `O=C(Nc1nc2cccc(-c3ccc(CN4CCS(=O)(=O)CC4)cc3)n2n1)C1CC1` [filgotinib], in the assay on stem cells [1], the “increase in expression of TLR3 signaling-related proteins (TLR3, IL6)” value (from here on “increase in expression”) is recorded as “less increased”; the “mRNA expression of the protein associated with senescence (PCNA), stemness (EZH2, BMI-1) and proliferation (survivin, CyclinD1)” value is recorded as “less decreased”. In the assay on stem cells [2], the “expression of proteins associated with senescence (PCNA), stemness (EZH2, BMI-1), proliferation (survivin, CyclinD1)” value is recorded as “less decreased” and the “increase in expression” value is recorded as “less increased”.
As to `C[C@@H]1CCN(C(=O)CC#N)C[C@@H]1N(C)c1ncnc2[nH]ccc12` [tofacitinib], in the assay with stem cells [3], the “inflammatory senescence induced by poly IC (b-galactoxidase-positive cells)” value is recorded as “significantly reduced”. In the assay with stem cells [1], the “increase in expression” value was “less increased”; the “mRNA expression of the protein associated with senescence (PCNA), stemness (EZH2, BMI-1) and proliferation (survivin, CyclinD1)” value is listed as “less decreased”. Besides, in the assay on stem cells [4], the “cell survival rate by cellular senescence induced by poly IC” value was “less decreased”. Also, in the assay on stem cells [5], the “decrease of TGF-b and HGF by treatment of poly IC” value is “less decreased”. In the assay on stem cells [6], the “increase of immunogenicity-related proteins HLA-A and HLA-B by poly IC treatment” value was “less increased”. Moreover, in the assay with stem cells [2], the “expression of proteins associated with senescence (PCNA), stemness (EZH2, BMI-1), proliferation (survivin, CyclinD1)” value is reported as “less decreased” and the “increase in expression” value is listed as “less increased”.
